Reference: PubChem BioAssay AID248 (DTP/NCI, 2004)
“And” between values parts separate entries of the source, which are not always exact repeats. Equal entries are not always repeated. Toxic doses and inconclusive results are not listed.

System: L1210 leukemia ip in BDF1 mice, survival T/C
Experiment: NCI In Vivo Anticancer Drug Screen. Data for tumor model L1210 Leukemia (intraperitoneal) in B6D2F1 (BDF1) mice
Details: endpoint: mean survival time, higher = longer survival
Method in brief: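 Tumor cells were implanted, animals were treated, and survival was followed. The result divides the treated measurement by the vehicle-control measurement.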

[1] = dose: 100.0 mg/kg/injection, schedule: Q01DX009 (ip), vehicle: carboxymethylcellulose (CMC)
[2] = dose: 100.0 mg/kg/injection, schedule: Q04DX002 (ip), vehicle: Klucel (hydroxypropylcellulose) (HPC)
[3] = dose: 200.0 mg/kg/injection, schedule: Q01DX009 (ip), vehicle: carboxymethylcellulose (CMC)
[4] = dose: 400.0 mg/kg/injection, schedule: Q01DX009 (ip), vehicle: carboxymethylcellulose (CMC)
[5] = dose: 100.0 mg/kg/injection, schedule: Q01DX001 (ip), vehicle: saline
[6] = dose: 100.0 mg/kg/injection, schedule: Q01DX009 (ip), vehicle: Klucel (hydroxypropylcellulose) (HPC)
[7] = dose: 200.0 mg/kg/injection, schedule: Q01DX009 (ip), vehicle: Klucel (hydroxypropylcellulose) (HPC)
[8] = dose: 100.0 mg/kg/injection, schedule: Q04DX003 (ip), vehicle: saline with Tween-80
[9] = dose: 200.0 mg/kg/injection, schedule: Q04DX003 (ip), vehicle: saline with Tween-80
[10] = dose: 400.0 mg/kg/injection, schedule: Q04DX003 (ip), vehicle: saline with Tween-80
[11] = dose: 100.0 mg/kg/injection, schedule: Q01DX001 (ip), vehicle: carboxymethylcellulose (CMC)
[12] = dose: 200.0 mg/kg/injection, schedule: Q01DX001 (ip), vehicle: carboxymethylcellulose (CMC)
[13] = dose: 400.0 mg/kg/injection, schedule: Q01DX001 (ip), vehicle: carboxymethylcellulose (CMC)

`CCCCCCCCCCCCCCCCCCNC(=O)Nc1cccc2ccccc12` was tested, and the T/C [1] was 87 % of control, the T/C [2] was 101 % of control and the T/C (dose: 100.0 mg/kg/injection, schedule: Q04DX002 (ip), vehicle: carboxymethylcellulose (CMC)) was 87 % of control. The T/C (dose: 100.0 mg/kg/injection, schedule: Q04DX003 (ip), vehicle: carboxymethylcellulose (CMC)) was 106 % of control, the T/C [3] was 87 % of control and the T/C (dose: 200.0 mg/kg/injection, schedule: Q04DX002 (ip), vehicle: Klucel (hydroxypropylcellulose) (HPC)) was 101 % of control. The T/C (dose: 200.0 mg/kg/injection, schedule: Q04DX002 (ip), vehicle: carboxymethylcellulose (CMC)) was 93 % of control and 95 % of control, the T/C (dose: 200.0 mg/kg/injection, schedule: Q04DX003 (ip), vehicle: carboxymethylcellulose (CMC)) was 96 % of control and the T/C [4] was 94 % of control and 97 % of control. The T/C (dose: 400.0 mg/kg/injection, schedule: Q04DX002 (ip), vehicle: carboxymethylcellulose (CMC)) was 93 % of control and 88 % of control and the T/C (dose: 400.0 mg/kg/injection, schedule: Q04DX003 (ip), vehicle: carboxymethylcellulose (CMC)) was 90 % of control.

`NC(=O)N1C(=O)C2C3C=CC(O3)C2C1=O` (centres undefined) was tested, and the T/C (dose: 100.0 mg/kg/injection, schedule: Q01DX009 (ip), vehicle: saline) was 96 % of control, the T/C (dose: 100.0 mg/kg/injection, schedule: Q04DX003 (ip), vehicle: saline) was 98 % of control and the T/C (dose: 200.0 mg/kg/injection, schedule: Q01DX009 (ip), vehicle: saline) was 95 % of control. The T/C (dose: 200.0 mg/kg/injection, schedule: Q04DX003 (ip), vehicle: saline) was 101 % of control and the T/C (dose: 400.0 mg/kg/injection, schedule: Q04DX003 (ip), vehicle: saline) was 101 % of control.

`COc1cc(O)c2c(c1)C(=O)c1cc3c(c(O)c1C2=O)C(OC1OC(C)C(O)C(O)C1OC)C(OC)C(C)(O)C3=O` (centres undefined) was tested, and the T/C [5] was 92 % of control, the T/C (dose: 200.0 mg/kg/injection, schedule: Q01DX001 (ip), vehicle: saline) was 103 % of control and the T/C (dose: 400.0 mg/kg/injection, schedule: Q01DX001 (ip), vehicle: saline) was 97 % of control.

With `O=C(NC/C(Br)=C/Br)Nc1cccc2ccccc12` the T/C (dose: 100.0 mg/kg/injection, schedule: Q04DX002 (ip), vehicle: saline with Tween-80) was 97 % of control, the T/C (dose: 200.0 mg/kg/injection, schedule: Q04DX002 (ip), vehicle: saline with Tween-80) was 90 % of control and the T/C (dose: 400.0 mg/kg/injection, schedule: Q04DX002 (ip), vehicle: saline with Tween-80) was 97 % of control.

With `Cn1c(N)cc(=O)n(C)c1=O` the T/C (dose: 100.0 mg/kg/injection, schedule: Q01DX001 (ip), vehicle: Klucel (hydroxypropylcellulose) (HPC)) was 112 % of control, the T/C (dose: 200.0 mg/kg/injection, schedule: Q01DX001 (ip), vehicle: Klucel (hydroxypropylcellulose) (HPC)) was 107 % of control and the T/C (dose: 400.0 mg/kg/injection, schedule: Q01DX001 (ip), vehicle: Klucel (hydroxypropylcellulose) (HPC)) was 109 % of control.

`CCOC(=O)C(Cc1ccccc1)NP(=O)(OCCCl)OCCCl` (centres undefined) was tested, and the T/C [6] was 104 % of control, the T/C (dose: 100.0 mg/kg/injection, schedule: Q04DX003 (ip), vehicle: Klucel (hydroxypropylcellulose) (HPC)) was 95 % of control and the T/C [7] was 96 % of control. For the same molecule, the T/C (dose: 200.0 mg/kg/injection, schedule: Q04DX003 (ip), vehicle: Klucel (hydroxypropylcellulose) (HPC)) was 95 % of control, the T/C (dose: 400.0 mg/kg/injection, schedule: Q01DX009 (ip), vehicle: Klucel (hydroxypropylcellulose) (HPC)) was 101 % of control and the T/C (dose: 400.0 mg/kg/injection, schedule: Q04DX003 (ip), vehicle: Klucel (hydroxypropylcellulose) (HPC)) was 87 % of control.

`CNC(=O)O/N=C/c1cccc(/C=N/OC(=O)NC)c1` was tested, and the T/C [8] was 97 % of control, the T/C [9] was 97 % of control and the T/C [10] was 103 % of control.

`CCOC(=O)C(C)(O)C(C)(Cl)c1ccccc1` (centres undefined) was tested, and the T/C (dose: 25.0 mg/kg/injection, schedule: Q01DX009 (ip), vehicle: Klucel (hydroxypropylcellulose) (HPC)) was 98 % of control, the T/C (dose: 25.0 mg/kg/injection, schedule: Q04DX002 (ip), vehicle: saline) was 102 % of control and the T/C (dose: 28.0 mg/kg/injection, schedule: Q01DX001 (ip), vehicle: saline) was 107 % of control. The T/C (dose: 44.0 mg/kg/injection, schedule: Q01DX001 (ip), vehicle: saline) was 106 % of control, the T/C (dose: 50.0 mg/kg/injection, schedule: Q01DX009 (ip), vehicle: Klucel (hydroxypropylcellulose) (HPC)) was 96 % of control and the T/C (dose: 50.0 mg/kg/injection, schedule: Q04DX002 (ip), vehicle: saline) was 114 % of control. The T/C (dose: 66.0 mg/kg/injection, schedule: Q01DX001 (ip), vehicle: saline) was 104 % of control, the T/C [5] was 101 % of control and the T/C [6] was 101 % of control. For the same molecule, the T/C (dose: 150.0 mg/kg/injection, schedule: Q01DX001 (ip), vehicle: saline) was 104 % of control, the T/C [7] was 98 % of control and the T/C (dose: 200.0 mg/kg/injection, schedule: Q04DX002 (ip), vehicle: saline) was 109 % of control and 111 % of control. The T/C (dose: 400.0 mg/kg/injection, schedule: Q04DX002 (ip), vehicle: saline) was 114 % of control.

With `C=C(C)CNc1ccccc1` the T/C (dose: 100.0 mg/kg/injection, schedule: Q01DX009 (ip), vehicle: saline with Tween-80) was 95 % of control, the T/C [8] was 97 % of control and the T/C (dose: 200.0 mg/kg/injection, schedule: Q01DX009 (ip), vehicle: saline with Tween-80) was 93 % of control. The T/C [9] was 97 % of control and the T/C [10] was 103 % of control.

For `CCCC#CCOCC(O)CCl` (centres undefined), the T/C (dose: 100.0 mg/kg/injection, schedule: Q01DX009 (ip), vehicle: saline sonified) was 105 % of control, the T/C (dose: 100.0 mg/kg/injection, schedule: Q04DX003 (ip), vehicle: saline sonified) was 91 % of control and the T/C (dose: 200.0 mg/kg/injection, schedule: Q01DX009 (ip), vehicle: saline sonified) was 101 % of control. The T/C (dose: 200.0 mg/kg/injection, schedule: Q04DX003 (ip), vehicle: saline sonified) was 94 % of control, the T/C (dose: 400.0 mg/kg/injection, schedule: Q01DX009 (ip), vehicle: saline sonified) was 105 % of control and the T/C (dose: 400.0 mg/kg/injection, schedule: Q04DX003 (ip), vehicle: saline sonified) was 94 % of control.

For `O=C(Nc1cccc(Cl)c1)OCC#CCCl`, the T/C (dose: 50.0 mg/kg/injection, schedule: Q01DX001 (ip), vehicle: saline sonified) was 97 % of control.

With `NC(=S)Nc1cccnc1` the T/C (dose: 25.0 mg/kg/injection, schedule: Q04DX002 (ip), vehicle: Klucel (hydroxypropylcellulose) (HPC)) was 91 % of control, the T/C (dose: 50.0 mg/kg/injection, schedule: Q04DX002 (ip), vehicle: Klucel (hydroxypropylcellulose) (HPC)) was 91 % of control and the T/C [2] was 97 % of control.

For `OCCCc1cc(Cl)ccc1O`, the T/C (dose: 50.0 mg/kg/injection, schedule: Q01DX001 (ip), vehicle: carboxymethylcellulose (CMC)) was 100 % of control, the T/C [11] was 100 % of control and the T/C [12] was 94 % of control. The T/C [13] was 92 % of control.

`CN(C)NP(=O)(Nc1ccccc1)Nc1ccccc1` was tested, and the T/C [1] was 103 % of control, the T/C [3] was 93 % of control and the T/C [4] was 98 % of control.

With `CC(Br)(c1ccccc1)[P+](c1ccccc1)(c1ccccc1)c1ccccc1` (centres undefined) the T/C (dose: 15.0 mg/kg/injection, schedule: Q01DX001 (ip), vehicle: carboxymethylcellulose (CMC)) was 96 % of control and the T/C (dose: 30.0 mg/kg/injection, schedule: Q01DX001 (ip), vehicle: carboxymethylcellulose (CMC)) was 101 % of control.

With `O=C1N/C(=N\OCCc2ccccc2)CC(NOCCc2ccccc2)N1` (centres undefined) the T/C [8] was 94 % of control, the T/C [9] was 94 % of control and the T/C [10] was 97 % of control.

For `CCOC(=O)c1ccc(NC(=O)N(CCCl)N=O)cc1`, the T/C (dose: 9.0 mg/kg/injection, schedule: Q01DX001 (ip), vehicle: carboxymethylcellulose (CMC)) was 215 % of control and the T/C (dose: 18.7 mg/kg/injection, schedule: Q01DX001 (ip), vehicle: carboxymethylcellulose (CMC)) was 157 % of control.

With `O=C(Nc1ccsc1)c1ccccc1` the T/C [11] was 110 % of control, the T/C (dose: 177.6 mg/kg/injection, schedule: Q01DX001 (ip), vehicle: carboxymethylcellulose (CMC)) was 98 % of control and the T/C [12] was 91 % of control. The T/C (dose: 266.8 mg/kg/injection, schedule: Q01DX001 (ip), vehicle: carboxymethylcellulose (CMC)) was 100 % of control, the T/C [13] was 90 % of control and the T/C (dose: 600.0 mg/kg/injection, schedule: Q01DX001 (ip), vehicle: carboxymethylcellulose (CMC)) was 102 % of control.

In the case of `C[CH2][Sn]([CH2]C)([CH2]C)[O]c1ccccc1`, the T/C (dose: 1.56 mg/kg/injection, schedule: Q01DX009 (ip), vehicle: saline with Tween-80) is reported as 97 % of control and the T/C (dose: 3.12 mg/kg/injection, schedule: Q01DX009 (ip), vehicle: saline with Tween-80) is reported as 108 % of control.
